Values joined by “and” are separate entries in the source; they are usually repeats but may differ in a detail not shown here. Equal entries are not always repeated.
Key:
hypertensive patients = details: 18 hypertensive patients, daily supplement of 48 mmol; cited from earlier work
[1] = system: apparently healthy volunteers; assay: Double-blind placebo-controlled low-dose potassium trial: blood pressure (MAP, SBP, DBP); type: in vivo, human; details: for DBP Week 3 − Week 0 mean difference / MAP Week 3 − Week 0 mean difference / SBP Week 3 − Week 0 mean difference: change Week 0 to 3, n = 30, mean ± SEM; for DBP Week 6 − Week 0 mean difference / MAP Week 6 − Week 0 mean difference / SBP Week 6 − Week 0 mean difference: change Week 0 to 6, n = 30, mean ± SEM
Protocol: A double-blind, placebo controlled trial on 59 volunteers, randomly assigned to receive 24 mmol/d of slow release potassium chloride (n=30) or a placebo (n=29) was conducted. Measures of BP, anthropometric characteristics and urine analysis for electrolytes were recorded during a one-week baseline period. Supplementation was for six weeks during which BP and changes in weight were assessed and a second 24-hour urine collection made. The primary outcome was the change in mean arterial pressure (MAP). Systolic (SBP) and diastolic (DBP) blood pressure were secondary outcomes.
The study took the form of a randomized double-blind, placebo-controlled trial with the aim of testing the effect of potassium supplementation on BP. […] The study consisted of a baseline period of one week during which blood pressure and body weight were measured at the beginning and end, and a 24-hour urine sample was collected to estimate electrolyte intake. During a six weeks intervention phase, BP and body weight were measured at three-week intervals, and a second 24-hour urine sample was collected during the final week. Potassium chloride was administered as one slow release tablet containing 8 mmol of potassium chloride (Slow-K Tablets 600 mg kindly supplied by Alliance Pharmaceuticals Ltd, Avonbridge House, Chippenham, Wiltshire SN15 2BB, UK) three times a day with meals. The placebo contained sorbitol and fructose.
Each BP measurement was performed following current recommendations (Beevers et al., ABC of hypertension, 4th Ed., London, BMJ Publishing Group, 2000). BP was assessed at the same time of day (within 30 minutes) for every appointment to avoid the influence of circadian variations in BP (Id.), at approximately the same heart rate, and by the same observer using the same instruments throughout the study for each measurement. The subjects were instructed not to smoke, eat or drink during the 30 minutes before each appointment They were also given verbal and written notice to avoid exercising 30 minutes before the appointment, to come to the appointment with an empty bladder and to maintain strictly their usual habits on the day of the appointment (coffee, tea, meals consumed at the same time of the day). BP measurements were performed after the subjects had rested quietly for at least five minutes in the seated position. Two different cuffs (35 cm and 42 cm) were used depending on the arm circumference. At each visit at least three readings for systolic (SBP) and diastolic (DBP) BP and heart rate were taken at two-minute intervals in the left arm using a semi-automated device employing the oscillometric method (Omron M5-I, Omron Healthcare Europe B.V., Hoofddorp, The Netherlands). The first readings of each assessment were ignored to avoid results affected by the defense reaction (Beevers et al., ABC of hypertension, 4th Ed., London, BMJ Publishing Group, 2000) and the last two readings were averaged and recorded. The readings were thereafter confirmed after a two-minute interval with a Hawksley random zero sphygmomanometer (Hawksley and Sons, Lancing, Sussex, UK) because automatic devices may be unsuitable for some individuals for which there is no obvious reason (Id.).
SBP was measured as the point of appearance of the Korotkoff sounds (Phase I) and DBP was measured as the point of complete disappearance of the Korotkoff sounds (Phase V) according to the guidelines given by the British Hypertension Society (Id). All recordings from the semi-automated device agreed well with the random zero sphygmomanometer. Subjects with either SBP≧140 mm Hg or DBP level≧90 mm Hg were considered to be hypertensive.
Mean Arterial Pressure (MAP) was computed as MAP=(2 DBP+SBP)/3 (Vander et al., Human Physiology, The Mechanism of Body Function, 8th Ed., McGraw-Hill, New York, 2000, pp. 407-16 and 626-34, and Wilson et al., Hypertension, 1999, 34, 181-6). […]

[2] = system: apparently healthy volunteers; assay: Low-dose potassium trial: compliance and side effects; type: in vivo, human; details: one person receiving potassium
Protocol: The patients and the investigator were unaware of the type of supplement being given, other than that it was a nutrient. The placebo and potassium chloride pills were provided in identical containers. The adherence of the volunteers to the treatment was assessed at each visit by questioning, and by counting the pills returned.
The baseline blood pressure used for the statistical analysis was the average of the measurements taken during the first week period. For Interval level variables (e.g. BP), differences between groups were tested using the Two-Sample t test while differences within each group were tested with the Paired t test. For Ordinal level variables (e.g. compliance) these tests were performed using the Mann-Whitney Test and the Wilcoxon Signed Rank Test for comparisons between and within the two groups respectively. The Chi-Squared Test was used to assess the significance of differences between the groups for Nominal level variables (e.g. gender).

[3] = 24 mmol/d slow release potassium chloride, n = 30, mean ± SEM
[4] = Week 0 to 6, listed as potassium
[5] = after six weeks of supplementation, versus placebo
[6] = within potassium group, listed as potassium
[7] = within potassium group, change Week 3 to 6, n = 30, mean ± SEM

## [Cl-].[K+] [Potassium, potassium chloride]
Hypertensive patients
  effect on BP: lower BP
[1]; [3]
  DBP Week 3: 72.95 ± 2.08 mm Hg
  DBP Week 6: 71.47 ± 1.90 mm Hg
  MAP Week 3: 87.67 ± 2.20 mm Hg
  MAP Week 6: 84.97 ± 2.06 mm Hg
  SBP Week 3: 117.17 ± 2.71 mm Hg
  SBP Week 6: 111.93 ± 2.52 mm Hg
[1]; Week 0 to 3
  DBP Potassium − placebo Mean Difference (95% CI): −4.11 (−6.09, −2.13)^4 mm Hg
  MAP Potassium − placebo Mean Difference (95% CI): −3.34 (−5.22, −1.47)^3 mm Hg
  SBP Potassium − placebo Mean Difference (95% CI): −1.28 (−4.21, 1.65) mm Hg
[1]; Week 0 to 6
  DBP Potassium − placebo Mean Difference (95% CI): −6.46 (−8.74, −4.19)^4 mm Hg
  MAP Potassium − placebo Mean Difference (95% CI): −7.01 (−9.12, −4.89)^4 mm Hg
  SBP Potassium − placebo Mean Difference (95% CI): −7.60 (−10.46, −4.73)^4 mm Hg
[1]; [4]
  DBP Potassium − placebo Mean Difference (95% CI): marked and significant decrease
  MAP Potassium − placebo Mean Difference (95% CI): marked and significant decrease
  SBP Potassium − placebo Mean Difference (95% CI): marked and significant decrease
[1]; Week 3 to 6
  DBP Potassium − placebo Mean Difference (95% CI): −2.35 (−4.70, −0.00)^5 mm Hg
  MAP Potassium − placebo Mean Difference (95% CI): −3.66 (−5.84, −1.49)^3 mm Hg
  SBP Potassium − placebo Mean Difference (95% CI): −6.32 (−8.84, −3.79)^4 mm Hg
[1]; [5]
  reduction in DBP: 6.46 mm Hg
  reduction in MAP: 7.01 mm Hg
  reduction in SBP: 7.60 mm Hg
[1]; within potassium group
  DBP Week 3 − Week 0 mean difference: −2.53 ± 0.73^6 mm Hg and −2.53 ± 0.73 mm Hg
  MAP Week 3 − Week 0 mean difference: −2.21 ± 0.72^3 mm Hg and −2.21 ± 0.72^2 mm Hg
  SBP Week 3 − Week 0 mean difference: −0.98 ± 1.20 mm Hg
  DBP Week 6 − Week 0 mean difference: −4.02 ± 0.87^5 mm Hg and −4.02 ± 0.87 mm Hg
  MAP Week 6 − Week 0 mean difference: −4.91 ± 0.80^5 mm Hg and −4.91 ± 0.79 mm Hg
  SBP Week 6 − Week 0 mean difference: −6.22 ± 1.07^5 mm Hg and −6.22 ± 1.10 mm Hg
[1]; [6]
  DBP Week 3 − Week 0 mean difference: significant decrease
  MAP Week 3 − Week 0 mean difference: significant decrease
  SBP Week 3 − Week 0 mean difference: not significantly reduced
  DBP Week 6 − Week 0 mean difference: decreased significantly
  MAP Week 6 − Week 0 mean difference: decreased significantly
  SBP Week 6 − Week 0 mean difference: decreased significantly
[1]; [7]
  DBP Week 6 − Week 3 mean difference: −1.48 ± 0.98 mm Hg and −1.48 ± 0.97 mm Hg
  MAP Week 6 − Week 3 mean difference: −2.70 ± 0.91^4 mm Hg and −2.70 ± 0.91 mm Hg
  SBP Week 6 − Week 3 mean difference: −5.23 ± 1.03^5 mm Hg and −5.23 ± 1.00 mm Hg
[1]; within potassium group, change Week 3 to 6, n = 30, mean ± SEM, listed as potassium
  SBP Week 6 − Week 3 mean difference: decreased significantly
[2]
  side effects reported: increase in appetite
